≈ marks a conversion by molar mass, not a printed value. Where “and” joins values, the source holds several entries; their conditions need not be identical. Equal entries are not always repeated. Residues, ends and D or L forms follow the SMILES beside them.

One experiment deals with ClpP1P2 (Mycolicibacterium smegmatis, UniProt A0R197+A0R198). As to the kind of experiment: ClpP1P2 inhibition whole-cell RFP-SsrA reporter assay. The note with it: M. smegmatis ΔprcAB IC50 (μM) for ClpP1P2, whole-cell RFP-SsrA reporter, 3 h incubation. In general terms: A reporter such as luciferase makes a cellular process visible.
A further experiment concerns the target HepG2 proteasome (Homo sapiens, UniProt P20618+P28074). As to the kind of experiment: Cell-based proteasome CT-like peptidase inhibition assay (Proteasome-Glo).
The subject of the next experiment is M. smegmatis ΔprcAB. The format is cell-based. Particulars: 24 h exposure, OD600; concentration inhibiting 50% of growth.
For the next experiment, the system named is M. tuberculosis H37Rv. As to the kind of experiment: microbe, parasite or virus in culture. The format is cell-based. Particulars: for MIC50 / MIC90: Mycobacterium tuberculosis, H37RV, 120 h; for MIC50: read-out: MIC50 (μM) against M. tuberculosis H37Rv; for MIC90: read-out: MIC90 (μM) against M. tuberculosis H37Rv.
The next experiment has as its target Kallikrein 1 (Homo sapiens, UniProt P06870). As to the kind of experiment: Protease panel: Kallikrein 1. The format is biochemical. The note with it: supplement panel table, test and control compound.
Another experiment concerns the target Chymase (Homo sapiens, UniProt P23946). As to the kind of experiment: Protease panel: Chymase. The format is biochemical. The note with it: supplement panel table, test and control compound.
The target in another experiment is T1, Cathepsin G (Homo sapiens, UniProt P08311).
T1 construct: Reaction Biology Corporation (contract testing)
Put plainly: Protease panel: Cathepsin G. Type of experiment: biochemical. Particulars: supplement panel table, test and control compound.

Another experiment deals with T2, Caspase 7 (Homo sapiens, UniProt P55210).
T2 construct: Reaction Biology Corporation (contract testing)
Put plainly: Protease panel: Caspase 7. The format is biochemical. Particulars: supplement panel table, test and control compound.

A further experiment deals with T3, Caspase 5 (Homo sapiens, UniProt P51878).
T3 construct: Reaction Biology Corporation (contract testing)
Put plainly: Protease panel: Caspase 5. Type of experiment: biochemical. Particulars: supplement panel table, test and control compound.

Another experiment addresses T4, Caspase 9 (Homo sapiens, UniProt P55211).
T4 construct: Reaction Biology Corporation (contract testing)
Put plainly: Protease panel: Caspase 9. Type of experiment: biochemical. The note with it: supplement panel table, test and control compound.

A further experiment deals with T5, Caspase 10 (Homo sapiens, UniProt Q92851).
T5 construct: Reaction Biology Corporation (contract testing)
As to the kind of experiment: Protease panel: Caspase 10. Type of experiment: biochemical. The note with it: supplement panel table, test and control compound.

The next experiment concerns the target T6, Caspase 11 (Mus musculus, UniProt P70343).
T6 construct: Reaction Biology Corporation (contract testing)
Put plainly: Protease panel: Caspase 11. Type of experiment: biochemical. Particulars: supplement panel table, test and control compound.

In another experiment the target is T7, Caspase 1 (Homo sapiens, UniProt P29466).
T7 construct: Reaction Biology Corporation (contract testing)
Put plainly: Protease panel: Caspase 1. The format is biochemical. The note with it: supplement panel table, test and control compound.

The target of another experiment is T8, Caspase 2 (Homo sapiens, UniProt P42575).
T8 construct: Reaction Biology Corporation (contract testing)
Put plainly: Protease panel: Caspase 2. Particulars: supplement panel table, test and control compound. The format is biochemical.

The target of another experiment is T9, Caspase 8 (Homo sapiens, UniProt Q14790).
T9 construct: Reaction Biology Corporation (contract testing)
Put plainly: Protease panel: Caspase 8. The format is biochemical. The note with it: supplement panel table, test and control compound.

A further experiment addresses T10, Caspase 4 (Homo sapiens, UniProt P49662).
T10 construct: Reaction Biology Corporation (contract testing)
Put plainly: Protease panel: Caspase 4. Type of experiment: biochemical. The note with it: supplement panel table, test and control compound.

ClpP1P2, sequence (A0R198 4-203): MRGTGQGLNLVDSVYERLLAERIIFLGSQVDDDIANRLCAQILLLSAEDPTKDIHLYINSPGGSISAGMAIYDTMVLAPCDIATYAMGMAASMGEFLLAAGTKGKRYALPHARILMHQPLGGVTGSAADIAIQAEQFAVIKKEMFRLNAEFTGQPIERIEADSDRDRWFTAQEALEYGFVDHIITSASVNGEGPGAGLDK
ClpP1P2, sequence (A0R197 17-218): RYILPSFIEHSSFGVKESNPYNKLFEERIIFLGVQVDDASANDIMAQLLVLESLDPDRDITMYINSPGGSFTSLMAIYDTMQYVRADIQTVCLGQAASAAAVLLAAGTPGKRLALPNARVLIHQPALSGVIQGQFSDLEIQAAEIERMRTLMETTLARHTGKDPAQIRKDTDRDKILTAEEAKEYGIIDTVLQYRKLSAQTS
Kallikrein 1, sequence (P06870 25-262, species assumed): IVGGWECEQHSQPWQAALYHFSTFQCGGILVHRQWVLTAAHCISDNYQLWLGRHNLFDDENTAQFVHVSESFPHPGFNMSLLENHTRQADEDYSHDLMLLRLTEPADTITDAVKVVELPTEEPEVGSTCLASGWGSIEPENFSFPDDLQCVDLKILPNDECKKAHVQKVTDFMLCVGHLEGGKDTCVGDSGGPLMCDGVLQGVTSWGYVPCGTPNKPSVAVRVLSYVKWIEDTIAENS
T6 sequence (P70343 81-373): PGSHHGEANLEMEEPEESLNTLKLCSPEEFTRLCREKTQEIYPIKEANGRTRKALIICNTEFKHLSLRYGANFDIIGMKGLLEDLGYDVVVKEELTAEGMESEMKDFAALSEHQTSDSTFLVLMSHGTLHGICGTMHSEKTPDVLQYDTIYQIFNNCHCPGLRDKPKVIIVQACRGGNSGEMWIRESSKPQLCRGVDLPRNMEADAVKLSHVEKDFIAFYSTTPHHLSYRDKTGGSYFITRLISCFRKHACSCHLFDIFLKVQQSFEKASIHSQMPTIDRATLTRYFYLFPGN
T9 sequence (Q14790 217-479, species assumed): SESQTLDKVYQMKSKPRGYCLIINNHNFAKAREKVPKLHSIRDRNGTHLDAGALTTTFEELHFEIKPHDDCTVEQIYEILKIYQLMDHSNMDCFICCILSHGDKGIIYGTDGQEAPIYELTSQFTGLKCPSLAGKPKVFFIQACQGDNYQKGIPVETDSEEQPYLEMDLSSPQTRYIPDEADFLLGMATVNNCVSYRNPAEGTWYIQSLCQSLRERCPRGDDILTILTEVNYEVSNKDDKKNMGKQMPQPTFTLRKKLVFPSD
T2 sequence (P55210 whole entry, species assumed): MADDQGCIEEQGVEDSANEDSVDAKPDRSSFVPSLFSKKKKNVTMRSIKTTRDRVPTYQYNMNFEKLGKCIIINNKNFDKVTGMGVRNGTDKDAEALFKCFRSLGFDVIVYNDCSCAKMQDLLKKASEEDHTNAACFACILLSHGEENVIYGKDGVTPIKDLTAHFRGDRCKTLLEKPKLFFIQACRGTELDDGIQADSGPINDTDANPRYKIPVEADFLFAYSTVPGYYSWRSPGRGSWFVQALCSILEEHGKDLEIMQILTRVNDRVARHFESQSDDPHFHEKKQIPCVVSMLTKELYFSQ
T5 sequence (Q92851 220-521, species assumed): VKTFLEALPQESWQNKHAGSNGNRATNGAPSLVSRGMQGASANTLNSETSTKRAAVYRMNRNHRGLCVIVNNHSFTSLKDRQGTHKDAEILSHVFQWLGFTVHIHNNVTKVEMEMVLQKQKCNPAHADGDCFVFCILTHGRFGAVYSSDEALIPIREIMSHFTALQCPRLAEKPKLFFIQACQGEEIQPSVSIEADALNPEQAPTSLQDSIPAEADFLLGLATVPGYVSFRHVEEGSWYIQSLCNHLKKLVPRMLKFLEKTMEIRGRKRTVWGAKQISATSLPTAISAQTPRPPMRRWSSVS
T7 sequence (P29466 120-404, species assumed): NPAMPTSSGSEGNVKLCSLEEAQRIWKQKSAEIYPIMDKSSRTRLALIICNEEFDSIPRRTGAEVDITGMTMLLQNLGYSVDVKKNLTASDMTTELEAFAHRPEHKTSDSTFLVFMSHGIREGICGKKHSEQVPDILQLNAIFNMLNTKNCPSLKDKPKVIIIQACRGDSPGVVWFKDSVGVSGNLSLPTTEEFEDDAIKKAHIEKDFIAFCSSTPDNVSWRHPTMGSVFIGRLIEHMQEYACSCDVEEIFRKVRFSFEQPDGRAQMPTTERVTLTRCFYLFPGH
T1 sequence (P08311 21-255, species assumed): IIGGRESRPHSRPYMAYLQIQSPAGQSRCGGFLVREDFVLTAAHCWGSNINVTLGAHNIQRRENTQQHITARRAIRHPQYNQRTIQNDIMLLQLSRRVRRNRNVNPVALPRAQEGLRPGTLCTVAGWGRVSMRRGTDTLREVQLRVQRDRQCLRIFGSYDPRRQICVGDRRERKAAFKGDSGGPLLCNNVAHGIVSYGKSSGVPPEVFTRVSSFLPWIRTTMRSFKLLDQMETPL
T10 sequence (P49662 81-377, species assumed): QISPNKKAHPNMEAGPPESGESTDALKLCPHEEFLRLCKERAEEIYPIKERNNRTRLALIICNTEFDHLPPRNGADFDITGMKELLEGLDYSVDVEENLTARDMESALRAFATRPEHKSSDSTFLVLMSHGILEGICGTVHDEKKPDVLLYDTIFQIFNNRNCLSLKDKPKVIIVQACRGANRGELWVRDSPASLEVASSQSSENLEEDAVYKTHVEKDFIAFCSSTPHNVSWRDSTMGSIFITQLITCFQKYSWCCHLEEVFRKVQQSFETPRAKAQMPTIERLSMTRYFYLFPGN
T4 sequence (P55211 whole entry, species assumed): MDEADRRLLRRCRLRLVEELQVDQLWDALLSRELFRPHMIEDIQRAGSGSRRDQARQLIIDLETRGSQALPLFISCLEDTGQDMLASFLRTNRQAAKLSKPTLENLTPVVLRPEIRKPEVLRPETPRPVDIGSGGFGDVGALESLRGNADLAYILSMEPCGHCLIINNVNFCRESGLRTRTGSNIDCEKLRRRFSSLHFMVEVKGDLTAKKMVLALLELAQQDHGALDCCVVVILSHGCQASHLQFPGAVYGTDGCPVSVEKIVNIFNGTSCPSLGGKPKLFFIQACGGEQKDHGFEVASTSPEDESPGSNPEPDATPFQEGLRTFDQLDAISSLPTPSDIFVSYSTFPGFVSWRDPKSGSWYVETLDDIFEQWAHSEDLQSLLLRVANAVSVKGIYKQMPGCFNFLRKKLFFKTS
T8 sequence (P42575 whole entry, species assumed): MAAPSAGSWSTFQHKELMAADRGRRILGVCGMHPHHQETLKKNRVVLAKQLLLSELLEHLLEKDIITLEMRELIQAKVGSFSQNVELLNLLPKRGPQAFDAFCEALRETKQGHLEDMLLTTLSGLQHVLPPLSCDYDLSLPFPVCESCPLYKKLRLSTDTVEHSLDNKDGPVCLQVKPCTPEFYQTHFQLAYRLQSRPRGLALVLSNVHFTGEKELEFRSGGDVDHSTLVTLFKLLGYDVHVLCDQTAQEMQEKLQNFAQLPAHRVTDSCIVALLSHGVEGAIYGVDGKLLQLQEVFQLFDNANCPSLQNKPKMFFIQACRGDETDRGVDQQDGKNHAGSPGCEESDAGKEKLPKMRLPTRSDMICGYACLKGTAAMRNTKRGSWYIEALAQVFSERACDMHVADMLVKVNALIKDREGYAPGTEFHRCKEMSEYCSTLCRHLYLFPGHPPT
T3 sequence (P51878 137-434, species assumed): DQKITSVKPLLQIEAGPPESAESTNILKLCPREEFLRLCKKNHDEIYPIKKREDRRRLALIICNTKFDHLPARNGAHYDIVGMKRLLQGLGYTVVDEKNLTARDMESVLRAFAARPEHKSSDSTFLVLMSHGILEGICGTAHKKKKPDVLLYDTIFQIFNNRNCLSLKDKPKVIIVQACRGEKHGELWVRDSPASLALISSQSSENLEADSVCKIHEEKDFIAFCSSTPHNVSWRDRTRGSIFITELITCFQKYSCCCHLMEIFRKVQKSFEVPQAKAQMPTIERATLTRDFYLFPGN
Chymase, sequence (P23946 22-247, species assumed): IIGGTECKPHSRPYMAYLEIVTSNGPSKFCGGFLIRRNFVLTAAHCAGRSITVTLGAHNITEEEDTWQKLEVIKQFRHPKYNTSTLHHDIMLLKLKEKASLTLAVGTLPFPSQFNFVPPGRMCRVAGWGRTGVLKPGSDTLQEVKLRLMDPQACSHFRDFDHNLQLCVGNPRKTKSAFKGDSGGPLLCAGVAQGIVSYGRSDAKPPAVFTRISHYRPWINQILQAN
Protocol for Caspase 10: (§1) Protease panel testing was carried out by Reaction Biology Corporation.
Protocol for Caspase 11: as §1
Protocol for Caspase 2: as §1
Protocol for Caspase 4: as §1
Protocol for Caspase 5: as §1
Protocol for Caspase 7: as §1
Protocol for Caspase 8: as §1
Protocol for Caspase 9: as §1
Protocol for Cathepsin G: as §1
Protocol for Chymase: as §1
Protocol for HepG2 proteasome: A cell-based CT-like peptidase assay was performed using the Proteasome-Glo cell-based assay reagent (Promega) according to the manufacturer's guidelines. Briefly, HepG2 cells (10^4 cells/well) were treated with the compounds indicated in the figures for 2 h, followed by incubation with the luminescent substrate for 10 min. Luminescence was detected with a Tecan M200 Pro plate reader.
Protocol for Kallikrein 1: as §1

For orientation: IC50 means the concentration at which inhibition is half-maximal. Take `O=C(N[C@@H](Cc1ccccc1)C(=O)N[C@@H](Cc1ccccc1)B(O)O)c1cnccn1` [Compound 31, ((R)-2-phenyl-1-((S)-3-phenyl-2-(pyrazine-2-carboxamido)propanamido)ethyl)boronic acid]: the half-maximal inhibitory concentration (IC50) against ClpP1P2 came out at 7.5 ± 2.6 µM. Moreover, the half-maximal inhibitory concentration (IC50) at HepG2 proteasome came out at 50 ± 10 nM. Besides, in the experiment on M. smegmatis ΔprcAB, the “M. smegmatis ΔprcAB MIC50” value is 16.5 µM and 16.5 ± 8.5 µM. In the experiment on M. tuberculosis H37Rv (5 days), the MIC50 was found to be 6 µM (≈ 2.51 µg/mL) and the MIC90 was 20 µM (≈ 8.37 µg/mL).
On Kallikrein 1, `CC(=O)N[C@@H](CC(C)C)C(=O)N[C@@H](CC(C)C)C(=O)N[C@H](C=O)CCCNC(=N)N` [Leupeptin, reference compound] came in with an IC50 of 26.7 µM.
For the compound `CC(C)C[C@H](NC(=O)[C@@H](NC(=O)N[C@@H](Cc1ccccc1)C(=O)O)[C@@H]1CCN=C(N)N1)C(=O)N[C@H](C=O)Cc1ccccc1` [Chymostatin, reference compound], the IC50 at Chymase turned out to be 0.0915 µM; against Cathepsin G it was 3.83 µM.
For the compound `CC(=O)N[C@@H](CC(=O)O)C(=O)N[C@@H](CCC(=O)O)C(=O)N[C@H](C(=O)N[C@H](C=O)CC(=O)O)C(C)C` [DEVD-CHO], half-maximal inhibition on Caspase 7 (IC50) was put at 0.0011 µM.
For the compound `O=C(N[C@@H](Cc1ccccc1)C(=O)N[C@@H](CCc1ccccc1)B(O)O)c1ccccc1` [Compound 51, ((R)-1-((S)-2-benzamido-3-phenylpropanamido)-3-phenylpropyl)boronic acid], the values for the IC50 on ClpP1P2 and at HepG2 proteasome were 1.5 ± 0.5 µM and 167 ± 59 nM, respectively. Further, in the experiment on M. smegmatis ΔprcAB, the “M. smegmatis ΔprcAB MIC50” value is 2.7 ± 0.5 µM. The MIC50 in the experiment with M. tuberculosis H37Rv (5 days) was determined as 1 ± 0.2 µM (≈ 0.43 µg/mL). In the experiment with M. tuberculosis H37Rv (5 days), the MIC90 amounted to 6 ± 0.2 µM (≈ 2.58 µg/mL).
At ClpP1P2, `O=C(N[C@@H](Cc1ccc(O)cc1)C(=O)N[C@@H](CCc1ccccc1)B(O)O)c1cnccn1` [Compound 57] yielded an IC50 of 7.5 ± 4.5 µM. The compound also came in with an IC50 against HepG2 proteasome of 533 ± 103 nM. For the same compound, the “M. smegmatis ΔprcAB MIC50” value in the experiment on M. smegmatis ΔprcAB came out at 8 ± 2.8 µM. Also, the “improvement of M. tuberculosis MIC50 over compound 1” value in the experiment with M. tuberculosis H37Rv amounted to 5 fold. For the same compound, in the experiment on M. tuberculosis H37Rv (5 days), the “MIC50 (μM) against M. tuberculosis H37Rv” value turned out to be 0.8 ± 0 µM (≈ 0.359 µg/mL), the MIC50 amounted to 0.8 µM (≈ 0.359 µg/mL) and the MIC90 is 3 µM (≈ 1.34 µg/mL).
For the compound `CC[C@H](C)[C@H](NC(C)=O)C(=O)N[C@@H](CCC(=O)O)C(=O)N[C@H](C(=O)N[C@H](C=O)CC(=O)O)[C@@H](C)O` [IETD-CHO] (Ac-IETD-aldehyde), the IC50 was 0.0213 µM against Caspase 5; 0.0553 µM at Caspase 9; 0.0177 µM at Caspase 10; 0.68 µM on Caspase 11; 0.0545 µM against Caspase 1; 0.626 µM against Caspase 2. The IC50 against Caspase 8 was 0.00166 µM; against Caspase 4 it was 2.73 µM.

The record behind these values is PMC5404560, “Towards Selective Mycobacterial ClpP1P2 Inhibitors with Reduced Activity against the Human Proteasome” (Antimicrobial Agents and Chemotherapy, 2017).
